The values that follow come from ChEMBL document CHEMBL1687884, “Mirabamides E-H, HIV-inhibitory depsipeptides from the sponge Stelletta clavosa” (J Nat Prod, 2011).

Each structure is given as a SMILES string. pIC50: −log10 of the molar value. Numbered stars: 1 amine (or outer) side, 2 acyl side, 3 side chain; on linkers, the order of the positions; unused ones are H or OH. Bridge positions count the residues as written; N and C are the ends. Square brackets hold non-standard residues; d marks the D form. Peptide text beside a SMILES is read from it. * marks the point of attachment. dLeu(3R-OH) = CC(C)[C@@H](O[*:3])[C@@H](N[*:1])C(=O)[*:2]; Gln(3S,4R-Me2) = C[C@H]([C@H](N)C(=O)O)[C@@H](C)C(N)=O; dTyr(βR-OMe) = CO[C@H](c1ccc(O)cc1)[C@@H](N)C(=O)O; Pip(4S-Cl) = O=C(O)[C@@H]1C[C@@H](Cl)CCN1; X1 = CCC(C)/C=C(C)/C=C\C(O)C(C)(O)C(=O)*; Abu(3R-NH2) = C[C@@H](N)[C@H](N)C(=O)O; NMeT = CN[C@H](C(=O)O)[C@@H](C)O

The test concerns Human immunodeficiency virus 1. As to the kind of experiment: Inhibition of HIV1 isolate YU2 infected in human TZM-bl cells expressing CD4 and CCR5 assessed as assessed inhibition of viral entry after 24 hrs by luciferase reporter assay. It is filed as functional, organism-based. The note with it: Human immunodeficiency virus 1, isolate YU2, TZM-bl. For orientation: Reporter assays use an easily measured gene product as a stand-in for the process of interest.

In the case of `CCC(C)/C=C(C)/C=C\C(O)C(C)(O)C(=O)NCC(=O)N[C@H](C(=O)N[C@H](C(=O)N[C@H](C(=O)N[C@H]1C(=O)N[C@H](COC)C(=O)NCC(=O)N[C@@H](C)C(=O)N(C)[C@@H]([C@@H](C)O)C(=O)N[C@H]([C@H](OC)c2ccc(O)cc2)C(=O)N2CC[C@H](Cl)C[C@H]2C(=O)O[C@@H]1C(C)C)[C@@H](C)[C@@H](C)C(N)=O)[C@@H](C)N)[C@@H](C)O` (stereo partly drawn) [MIRABAMIDE C] (X1-GT[Abu(3R-NH2)][Gln(3S,4R-Me2)][dLeu(3R-OH)][dS](Me)GA[NMeT][dTyr(βR-OMe)][Pip(4S-Cl)]; ester 5-C), the pIC50 was 6.91.

Usually pIC50 stands for the IC50 on a negative log10 scale, so that one unit is a factor of ten.
